Legend:
[1] = system: S. aureus SA-APH2″-AAC6′ (APH2), resistant to gentamicin; experiment: MIC and checkerboard (FIC) assay; conditions: Staphylococcus aureus; for MIC99: read-out: MIC 99.9
[2] = system: S. aureus SA-APH3′ (APH3), resistant to kanamycin; experiment: MIC and checkerboard (FIC) assay; conditions: Staphylococcus aureus; for MIC99: read-out: MIC 99.9
[3] = system: S. aureus SA-ANT4′ (ANT4), resistant to fusidic acid; experiment: MIC and checkerboard (FIC) assay; conditions: Staphylococcus aureus; for MIC99: read-out: MIC 99.9
[4] = system: S. aureus SA-RN4220-pUL5054 (RN4220); experiment: MIC and checkerboard (FIC) assay; conditions: Staphylococcus aureus; for MIC99: read-out: MIC 99.9
[5] = system: S. aureus SA-1199B (NorA efflux pump overexpressed); experiment: MIC and checkerboard (FIC) assay; conditions: Staphylococcus aureus; for MIC99: read-out: MIC 99.9
MRSA SA-ST239 = experiment: MIC and checkerboard (FIC) assay; conditions: Staphylococcus aureus, MRSA; for MIC99: read-out: MIC 99.9
[6] = system: S. aureus ATCC25923 (methicillin sensitive); experiment: MIC and checkerboard (FIC) assay; conditions: Staphylococcus aureus; for MIC90: ATCC25923; for MIC99: ATCC25923, read-out: MIC 99.9
[7] = system: panel of laboratory MRSA strains; experiment: MIC and combination tests, panel of laboratory strains; conditions: tanshinone highest tested concentration 128 μg/ml
Solubility = conditions: MIC test medium
[8] = system: adherence of MRSA strain JE-2 to fibrinogen; experiment: Fibrinogen-binding adherence assay (crystal violet); assay type: cell-based, Staphylococcus aureus; conditions: varying concentrations
[9] = system: bacterial aggregation of MRSA JE-2; experiment: Aggregation assay of MRSA JE-2; assay type: cell-based, Staphylococcus aureus; conditions: JE-2; varying concentrations
[10] = system: NorA overexpressed S. aureus; conditions: NorA overexpressed S. aureus, cited from earlier work

O=C(O)c1cc(O)c(O)c(O)c1 [Gallic acid, 3,4,5-trihydroxybenzoic acid]
MIC90 [1]: 512 µg/mL | MIC99 [1]: > 512 µg/mL | MIC90 [2]: 512 µg/mL | MIC99 [2]: > 512 µg/mL | MIC90 [3]: 512 µg/mL | MIC99 [3]: > 512 µg/mL | MIC90 [4]: 512 µg/mL | MIC99 [4]: > 512 µg/mL | MIC90 [5]: 512 µg/mL | MIC99 [5]: > 512 µg/mL | MIC90 (MRSA SA-ST239): 256 µg/mL | MIC99 (MRSA SA-ST239): > 512 µg/mL | MIC90 [6]: 256 µg/mL | MIC99 [6]: > 512 µg/mL | activity against the tested MRSA strains when used alone [7]: relatively weak

Cc1coc2c1C(=O)C(=O)c1c-2ccc2c(C)cccc12 [Tanshinone, tanshinone]
solubility (Solubility): poor | MIC90 [1]: > 128 µg/mL | MIC99 [1]: > 128 µg/mL | MIC90 [2]: > 128 µg/mL | MIC99 [2]: > 128 µg/mL | MIC90 [3]: > 128 µg/mL | MIC99 [3]: > 128 µg/mL | MIC90 [4]: > 128 µg/mL | MIC99 [4]: > 128 µg/mL | MIC90 [5]: > 128 µg/mL | MIC99 [5]: > 128 µg/mL | MIC90 (MRSA SA-ST239): > 128 µg/mL | MIC99 (MRSA SA-ST239): > 128 µg/mL | MIC90 [6]: > 128 µg/mL | MIC99 [6]: > 128 µg/mL | activity against the tested MRSA strains when used alone [7]: ineffective

COc1ccc2cc3[n+](cc2c1OC)CCc1cc2c(cc1-3)OCO2 [Berberine]
fibrinogen-binding adherence [8]: dose-dependent reduction of adherence | bacterial aggregation [9]: reduced | antimicrobial action (MIC) potentiated ([10]; with multidrug pump inhibitor 5′-methoxyhydnocarpin): 2 µg/mL | antimicrobial action (MIC) alone ([10]; without pump inhibitor): 32 µg/mL | MIC90 [1]: 256 µg/mL | MIC99 [1]: > 512 µg/mL | MIC90 [2]: 128 µg/mL | MIC99 [2]: > 512 µg/mL | MIC90 [3]: 256 µg/mL | MIC99 [3]: > 512 µg/mL | MIC90 [4]: 256 µg/mL | MIC99 [4]: > 512 µg/mL | MIC90 [5]: 256 µg/mL | MIC99 [5]: > 512 µg/mL | MIC90 (MRSA SA-ST239): 256 µg/mL | MIC99 (MRSA SA-ST239): > 512 µg/mL | MIC90 [6]: 256 µg/mL | MIC99 [6]: > 512 µg/mL | activity against the tested MRSA strains when used alone [7]: relatively weak

— patent US11690810B2, “Combination treatment of bacterial infection” (The Chinese University of Hong Kong, priority 2018, dated 2023)
